The subject of series [1] is THP-1 xenograft. As to the kind of experiment: THP-1 AML xenograft model. The format is in vivo, mice. The conditions noted are these: Group 2: single agent, i.v. Days 1, 2, 8, 9, 15, 16; IP Days 22-25, 29, 30. The protocol:
The anti-tumor activity of LOR-253HCl, as a single agent and in combination with azacitidine, was evaluated in yet another in vivo animal model of human AML. Xenograft model mice for AML cell line THP-1 was generated with the same method as in Examples 9 and 10, and were treated with LOR-253HCl alone or in combination with azacitidine, with azacitidine alone, or with a negative control vehicle, and tumor sizes were measured as described in Examples 9 and 10. The detailed treatment conditions are shown as follows, and the results are shown in FIG. 26. • Group 1 Control: received i.v. treatments with LOR-253 control vehicle (CV) on Days 1, 2, 8, 9, 15 &16; received subcutaneous (SC) treatments with Azacitidine control vehicle on Days 1, 4, 8, 11, 15, 18, 22, 25, 29 &32; and received intraperitoneal (IP) treatments with LOR-253-CV on Days 22, 23, 24, 25, 29&30. • Group-2-LOR-253: received i.v. treatments on Days 1, 2, 8, 9, 15 &16; received IP treatments on Days 22, 23, 24, 25, 29&30 • Group-3-Azacitidine: received SC treatments on Days 1, 4, 8, 11, 15, 18, 22, 25, 29 &32. • Group-4-Combination: received i.v. treatments with LOR-253 on Days 1, 2, 8, 9, 15 &16; received IP treatments with LOR-253 on Days 22, 23, 24 &25; and received SC-treatment with Azacitidine on Days 1, 4, 8, 11, 15, 18, 22 &25

Series [2] has as its system Kasumi-1 xenograft. Kind of series: Kasumi-1 AML xenograft model. The note with it: 30 mg/kg (15 mg/kg twice per day) i.v., two consecutive days per week, four weeks. The format is in vivo. The protocol:
The anti-tumor activity of LOR-253HCl was evaluated in another in vivo animal model of human AML. The human AML cell line Kasumi-1 was implanted subcutaneously into athymic nude mice. Some tumor-bearing mice were treated with LOR-253HCl at 30 mg/kg (15 mg/kg twice per day) for two consecutive days per week for four weeks (the “LOR-253 treatment group”). LOR-253 was administered by intravenous (i.v.) bolus injection as the hydrochloric salt form (LOR-253-HCl) formulated in 20% Polyethylene Glycol 400, 10% Propylene Glycol, and 10% Solutol HS in 60% water.
The major endpoint was to observe for tumor growth inhibition after treatment with LOR-253HCl and compare the anti-tumor effects of different dosing schedules. Tumor sizes were measured three times per week from day 10 after the tumor cell inoculation. Tumors were measured in three dimensions using calipers and the volume was expressed in millimeters cubed using the formula: V=0.5 a×b×c, where a, b, and c are the length, width, and height of the tumor, respectively. Mean tumor volumes+/−standard error (SE) were calculated from each measurement and then plotted in a standard graph to compare the anti-tumor efficacy of drug treatment to that of control (FIG. 20). Toxicity was assessed by clinical observations and by measurement of mouse body weight in grams twice per week over the course of the study. Mean body weights were calculated from each measurement and then plotted to compare body weight changes in the drug treatment group to that of control (FIG. 21).

The nature of series [3]: Pharmacokinetics, serum level after i.v. bolus. It is filed as in vivo. The conditions noted are these: CD-1 nude mice; i.v. bolus 1, 5 and 15 mg/kg. The protocol:
To study the pharmacokinetic (PK) […], CD-1 nude mice were treated by i.v. bolus injections of LOR-253HCl at 1, 5, and 15 mg/kg. The serum level of LOR-253 was measured.

The subject of series [4] is advanced or metastatic solid tumours. As to the kind of experiment: Open-label phase 1 study in patients with advanced or metastatic solid tumours. It is filed as in vivo, human. The protocol: Phase I: This was an open-label, phase 1 study to determine the maximum tolerated dose (MTD) or appropriate target dose if MTD not reached to identify the recommended phase 2 dose of LOR-253HCl in patients with advanced or metastatic solid tumours. In the first set of doses, LOR-253HCl was given in ascending doses until the maximum administered dose or appropriate target dose is reached. In the other set of doses, LOR-253HCl was given in ascending doses starting from 20 mg/m^2 until the maximum administered dose or appropriate target dose is reached. Patient as treated on LOR-253HCl for 2 cycles for the evaluation. • Other Name: No other names are used. • Study Type: Interventional • Study Design: Endpoint Classification: Safety Study • Intervention Model: Single Group Assignment • Masking: Open Label • Primary Purpose: Treatment • Official Title: Open-Label, Phase 1 Study of LOR-253HCl in Patients With Advanced or Metastatic Solid Tumours
• To determine the maximum tolerated dose (MTD) or appropriate target dose if MTD not reached to identify the recommended phase 2 dose of LOR-253HCl in patients with advanced or metastatic solid tumours. [Time Frame: 8 weeks]
• To characterize the safety profile of LOR-253HCl when administered to patients with advanced or metastatic solid tumours. [Time Frame: 8 weeks]
• 1. Male or female 18 years of age or older. • 2. Histologically confirmed diagnosis of solid tumor for which no effective therapy is available or that is unresponsive to conventional therapy. • 3. Meet laboratory parameter requirements at study entry.
• 1. Chemotherapy, radiotherapy, biologic therapy, immunotherapy or any other investigational drugs within 21 days of beginning study treatment with LOR-253HCl. • 2. A hematologic malignancy. • 3. A history of brain or other central nervous system metastases. • 4. Have a presence of a significant infection. • 5. Clinically significant autoimmune disease. • 6. Uncontrolled intercurrent illness. • 7. With iron or copper overload syndromes. • 8. Pregnancy or breast feeding.

Series [5] deals with KG-1 xenograft. Kind of series: KG-1 AML xenograft model. It is filed as in vivo, mice. The conditions noted are these: 15 mg/kg iv, bid, 2T/wk; single agent. The protocol:
The anti-tumor activity of LOR-253HCl was evaluated in yet another in vivo animal model of human AML. Xenograft model mice for AML cell line KG-1 was generated with the same method as in Examples 9 and 10, and were treated with LOR-253HCl or control according to the following regime.
LOR-253-15 mg/kg-iv, bid, 2T/wk-Day 1

For series [6], the system named is HL-60 xenograft. As to the kind of experiment: HL-60 AML xenograft model. It is filed as in vivo, athymic nude mice. The conditions noted are these: 3 cycles. The protocol:
The human AML cell line HL-60 was implanted subcutaneously into athymic nude mice. Tumor-bearing mice were treated with LOR-253HCl alone or in combination with azacitidine, with azacitidine alone, or with a negative control vehicle. The detailed treatment conditions are as follows. • Group 1: Negative control group. LOR-253HCl control vehicle, 2×/day, 3 cycles of 2 consecutive days, 5 days between cycles, i.v., plus 1% D-mannitol every four days by s.c. injection • Group 2: Azacitidine (in 1% D-mannitol) at 10 mg/kg 1× on days 1, 4, 8, 11, 15 and 18 by subcutaneous (s.c.) injection • Group 3: LOR-253HCl at 15 mg/kg bid for 3 cycles, each cycle is 2 consecutive days of dosing per week with 5 days of non-dosing, i.v., n=9 (2T-5B) • Group 4: LOR-253HCl at 15 mg/kg 2×/day (bid) for 3 cycles, each cycle is 1 day of dosing per week with 6 days of non-dosing, i.v., n=9 (1T-6B) • Group 5: Combination of LOR-253 (2T-5B) and azacitidine. LOR-253HCl at 15 mg/kg bid for 3 cycles, each cycle is 2 consecutive days of dosing per week with 5 days of non-dosing, i.v., n=9 (2T-5B) plus azacitidine at 10 mg/kg 1× every four days by s.c. injection • Group 6: Combination of LOR-253 (1T-6B) and azacitidine. […]
Tumor sizes were measured three times per week.

On to `Cc1[nH]c2ccc(F)cc2c1-c1nc2c3cccnc3c3ncccc3c2[nH]1` [LOR-253HCl], for which the tumor growth inhibition entry is reported as “inhibited growth of THP-1 tumors to about the same extent as or slightly more than azacitidine alone” in series [1]; “significant tumor growth inhibition” in series [5]; “inhibited growth of HL-60 tumors to approximately the same extent as or slightly more than azacitidine alone” in series [6] (Group 3: 15 mg/kg bid i.v., two consecutive days per week (2T-5B)); “inhibited growth of HL-60 tumors to approximately the same extent as or slightly more than azacitidine alone” in series [6] (Group 4: 15 mg/kg bid i.v., one day per week (1T-6B)). In addition, the body weight result in series [2] is given as “did not show body weight loss”. In addition, in series [2], the “overt signs of toxicity” value was “did not show other overt signs of toxicity”. In series [2] (p=0.028 Student's t-test), the “tumor growth inhibition vs vehicle control” value is reported as “statistically significantly increased inhibitory effect”. In addition, the “serum level of LOR-253” value in series [3] was “dose related increase”. For the same compound, the “Most common AE and SAE” value in series [4] (N=27 patients, 7 dose levels) is “Fatigue and 1 case of reversible hypophosphatemia”. In addition, the Safety profile entry in series [4] (N=27 patients, 7 dose levels) is listed as “Excellent Safety Profile”. In series [4] (patient with NSCLC (poorly differentiated adenocarcinoma), extensive metastases, refractory), the “tumor response in individual patient (FIG. 12)” value was “Tumor shrinkage”. The RECIST partial response result in series [4] (patients with advanced solid tumors) is on record as “No RECIST PR”. Besides, the “Stable Disease, evaluable patients” value in series [4] (patients with advanced solid tumors, dose-escalating, 7 dose levels) stood at 41%.

Values taken from US20150104392A1, “COMPOSITIONS, BIOMARKERS AND THEIR USE IN THE TREATMENT OF CANCER” (Aptose Biosciences Inc., priority 2013, published 2015).
